Measured values from patent US20260109707A1, “HETEROBIFUNCTIONAL COMPOUNDS AND METHODS OF TREATING DISEASE” (Halda Therapeutics OpCo. Inc., priority 2022, published 2026).
Where two headings read alike, the source gives them in different places.

Legend:
[1] = system: T-Rex 293 cell line SC3 cells having increased expression of androgen receptor protein due to exposure to doxycycline; assay: Cellular growth inhibition assay, T-Rex 293 SC3 cells with doxycycline (CellTiter-Glo, 72 hours); assay type: cell-based; settings: 72 h, T-Rex 293 SC3 cells with increased androgen receptor expression due to doxycycline (10 ng/mL)
Summary of the method: (§1)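 Doxycycline (10 ng/mL) was either included or omitted to toggle wild-type androgen receptor expression in SC3 cells, a T-Rex 293 clone, grown in stripped-serum, phenol red-free medium. After 72 hours with compound, viable cells were quantified by CellTiter-Glo 2.0.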

[2] = system: T-Rex 293 cell line SC3 cells lacking increased expression of androgen receptor protein; assay: Cellular growth inhibition assay, T-Rex 293 SC3 cells without doxycycline (CellTiter-Glo, 72 hours); assay type: cell-based; settings: T-Rex 293 cell line SC3 cells not exposed to doxycycline (lacking increased androgen receptor expression)
Summary of the method: as §1

VCaP cells = assay: Cellular growth inhibition assay for VCaP cells (CellTiter-Glo, 72 hours); assay type: cell-based, human
Summary of the method: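 Luminescent viability signal after 72 h of compound exposure gave GI50 values by four-parameter nonlinear regression. Compounds were added in 0.5% DMSO to cells plated 24 h earlier at 5000/well in DMEM containing 10% FBS.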

T47D cells = assay: Cellular growth inhibition assay for T47D cells (CellTiter-Glo, 72 hours); assay type: cell-based, human; settings: 72 hours treatment
Experimental: T47D cells were purchased from American Type Cell Culture (ATCC Cat #HTB-133) and then seeded on poly-D-lysine coated, black clear-bottom 384-well plates at 3000/well in 25 μL Dulbecco's Modified Eagle Medium (DMEM) supplemented with 10% w/w Fetal bovine serum (FBS), 0.2 units/mL recombinant human insulin (Gibco Cat #12585014), and 1% w/w Pen-Strep. Pen-Strep is a commercially available mixture of penicillin G and streptomycin, which is used in mammalian cell culture media to prevent bacterial contamination. Dulbecco's Modified Eagle Medium (DMEM) supplemented with 10% w/w fetal bovine serum (FBS), 0.2 units/mL recombinant human insulin, and 1% w/w Pen-Strep is herein referred to as Treatment Medium. Following seeding of cells in the plates, the plates were spun at 300×g for 30 seconds, then equilibrated to room temperature for 30 minutes, and then deposited in a humidified tissue culture incubator maintained at 37° C. with 5% CO2.
At 24 hours after seeding of the cells, dilutions of test compound were prepared in DMSO and dissolved in Treatment Medium, to achieve a final DMSO concentration of 0.5% w/w, thereby providing the Test Compound Solution. A 25 μL aliquot of the Test Compound Solution was added to cells in the well plates. An equal volume of a solution containing DMSO and Treatment Medium was used as a negative control. Following treatment of cells with Test Compound Solution or said equal volume of a solution containing DMSO and Treatment Medium, the plates were spun at 300×g for 30 seconds, and then left in an incubator for 72 hours.
At the end of the treatment duration, cell viability was quantified with CellTiter-Glo 2.0 reagent (Promega Cat #G9243). For this purpose, plates were equilibrated to room temperature for 30 minutes, and then 25 μL of CellTiter-Glo 2.0 reagent was added to cells in the plate wells. Plates were then agitated on a shaker for two minutes at 500 rpm and subsequently incubated at room temperature for 10 minutes. Following incubation, the plates were spun at 3000×g for 30 seconds, then sealed with an optical adhesive cover, and luminescence readings were measured with an EnVision Plate Reader (Perkin Elmer).
Data was normalized using zero luminescence for baseline. A four-parameter non-linear regression curve fit was applied to dose-response data in GraphPad Prism data analysis software to determine the half-maximal growth inhibitory concentration (GI50) for each test compound.

| SMILES | GI50 [1] [nM] | GI50 ([2]; 72 h) [nM] | GI50 (VCaP cells; Homo sapiens, VCaP, 72 h) [nM] | GI50 (T47D cells; Homo sapiens, T47D, 72 h) [nM] | GI50 (VCaP cells) [nM] | GI50 (T47D cells) [nM] | GI50 [2] [nM] |
| --- | --- | --- | --- | --- | --- | --- | --- |
| CCNC(=O)C[C@@H]1N=C(c2ccc(N(C)CC3CN(c4ccc(C(=O)N[C@H]5CC[C@H](Oc6ccc(C#N)c(Cl)c6)CC5)nn4)C3)cc2)c2c(sc(C)c2C)-n2c(C)nnc21 [I-30] | < 500 | 500 to 1500 | < 500 | 500 to 1500 |  |  |  |
| CCNC(=O)C[C@@H]1N=C(c2ccc(CCC3CN(c4ccc(C(=O)N[C@H]5CC[C@H](Oc6ccc(C#N)c(Cl)c6)CC5)nn4)C3)cc2)c2c(sc(C)c2C)-n2c(C)nnc21 [I-31] | < 500 | 500 to 1500 | < 500 | 500 to 1500 |  |  |  |
| CCNC(=O)C[C@@H]1N=C(c2ccc(CN3CC4CN(c5ccc(C(=O)N[C@H]6CC[C@H](Oc7ccc(C#N)c(Cl)c7)CC6)nn5)CC4C3)cc2)c2c(sc(C)c2C)-n2c(C)nnc21 (stereo partly drawn) [I-32] | < 500 | 1500 to 3000 | < 500 | 500 to 1500 |  |  |  |
| CCNC(=O)C[C@@H]1N=C(c2ccc(CCCC3CCN(c4ccc(C(=O)N[C@H]5CC[C@H](Oc6ccc(C#N)c(Cl)c6)CC5)nn4)CC3)cc2)c2c(sc(C)c2C)-n2c(C)nnc21 [I-33] |  | 500 to 1500 | < 500 | 500 to 1500 |  |  |  |
| CCNC(=O)C[C@@H]1N=C(c2ccc(N(C)CCC3CCN(c4ccc(C(=O)N[C@H]5CC[C@H](Oc6ccc(C#N)c(Cl)c6)CC5)nn4)CC3)cc2)c2c(sc(C)c2C)-n2c(C)nnc21 [I-34] | < 500 | 500 to 1500 | 500 to 1500 | 500 to 1500 |  |  |  |
| CCNC(=O)C[C@@H]1N=C(c2ccc(N(C)CCN3CCN(c4ccc(C(=O)N[C@H]5CC[C@H](Oc6ccc(C#N)c(Cl)c6)CC5)nn4)CC3)cc2)c2c(sc(C)c2C)-n2c(C)nnc21 [I-35] | < 500 | 500 to 1500 | < 500 | 500 to 1500 |  |  |  |
| CCNC(=O)C[C@@H]1N=C(c2ccc(N3CCC(CN4CCN(c5ccc(C(=O)N[C@H]6CC[C@H](Oc7ccc(C#N)c(Cl)c7)CC6)nn5)CC4)CC3)cc2)c2c(sc(C)c2C)-n2c(C)nnc21 [I-36] | < 500 | 500 to 1500 | < 500 | 500 to 1500 |  |  |  |
| CCNC(=O)C[C@@H]1N=C(c2ccc(OC3CC(OC4CCN(c5ccc(C(=O)N[C@H]6CC[C@H](Oc7ccc(C#N)c(Cl)c7)CC6)nn5)CC4)C3)cc2)c2c(sc(C)c2C)-n2c(C)nnc21 (stereo partly drawn) [I-37] | < 500 | < 500 | < 500 | < 500 |  |  |  |
| CCNC(=O)C[C@@H]1N=C(c2ccc(CN3CCN(c4ccc(C(=O)N[C@H]5CC[C@H](Oc6ccc(C#N)c(Cl)c6)CC5)nn4)CC3)cc2)c2c(sc(C)c2C)-n2c(C)nnc21 [I-38] | < 500 | 500 to 1500 | < 500 | 500 to 1500 |  |  |  |
| CCNC(=O)C[C@@H]1N=C(c2ccc(N3CC(N4CCN(c5ccc(C(=O)N[C@H]6CC[C@H](Oc7ccc(C#N)c(Cl)c7)CC6)nn5)CC4)C3)cc2)c2c(sc(C)c2C)-n2c(C)nnc21 [I-40] | < 500 | 500 to 1500 | < 500 | 500 to 1500 |  |  |  |
| CCNC(=O)C[C@@H]1N=C(c2ccc(N3CCN(C4CN(c5ccc(C(=O)N[C@H]6CC[C@H](Oc7ccc(C#N)c(Cl)c7)CC6)nn5)C4)CC3)cc2)c2c(sc(C)c2C)-n2c(C)nnc21 [I-41] | < 500 | 500 to 1500 | < 500 | < 500 |  |  |  |
| CCNC(=O)C[C@@H]1N=C(c2ccc(N3CCC(N(C)C4CCN(c5ccc(C(=O)N[C@H]6CC[C@H](Oc7ccc(C#N)c(Cl)c7)CC6)nn5)CC4)CC3)cc2)c2c(sc(C)c2C)-n2c(C)nnc21 [I-43] | < 500 | 1500 to 3000 | < 500 | 500 to 1500 |  |  |  |
| Cc1sc2c(c1C)C(c1ccc(C[C@@H]3CC[C@]4(C3)CN(c3ccc(C(=O)N[C@H]5CC[C@H](Oc6ccc(C#N)c(Cl)c6)CC5)nn3)CCO4)cc1)=N[C@@H](Cc1ncco1)c1nnc(C)n1-2 [I-264] |  |  | 1500 to 3000 | > 3000 |  |  |  |
| Cc1sc2c(c1C)C(c1ccc(C[C@@H]3CC[C@@]4(C3)CN(c3ccc(C(=O)N[C@H]5CC[C@H](Oc6ccc(C#N)c(Cl)c6)CC5)nn3)CCO4)cc1)=N[C@@H](Cc1ncco1)c1nnc(C)n1-2 [I-265] |  |  |  |  | 1500 to 3000 | > 3000 |  |
| Cc1sc2c(c1C)C(c1ccc(NCC(=O)N3CCC(c4ccc(C(=O)N[C@H]5CC[C@H](Oc6ccc(C#N)c(Cl)c6)CC5)nn4)CC3)cc1)=N[C@@H](Cc1ncco1)c1nnc(C)n1-2 [I-268] |  |  | > 3000 | 500 to 1500 |  |  |  |
| Cc1sc2c(c1C)C(c1ccc(C(=O)N3CC[C@@]4(CCCN(c5ccc(C(=O)N[C@H]6CC[C@H](Oc7ccc(C#N)c(Cl)c7)CC6)nn5)C4)C3)cc1)=N[C@@H](Cc1ncco1)c1nnc(C)n1-2 [I-269] |  |  | > 3000 | 1500 to 3000 |  |  |  |
| Cc1sc2c(c1C)C(c1ccc(C(=O)N3CC[C@]4(CCCN(c5ccc(C(=O)N[C@H]6CC[C@H](Oc7ccc(C#N)c(Cl)c7)CC6)nn5)C4)C3)cc1)=N[C@@H](Cc1ncco1)c1nnc(C)n1-2 [I-270] |  |  | 500 to 1500 | > 3000 |  |  |  |
| Cc1sc2c(c1C)C(c1ccc(C(=O)N3CC[C@@]4(CCCN(c5ccc(C(=O)N[C@H]6CC[C@H](Oc7ccc(C#N)c(Cl)c7)CC6)nn5)C4)C3)cc1)=N[C@H](Cc1ncco1)c1nnc(C)n1-2 [I-271] |  |  | > 3000 | > 3000 |  |  |  |
| Cc1sc2c(c1C)C(c1ccc(CN(C)C(=O)CCc3ccc(C(=O)N[C@H]4CC[C@H](Oc5ccc(C#N)c(Cl)c5)CC4)nn3)cc1)=N[C@@H](Cc1ncco1)c1nnc(C)n1-2 [I-273] |  |  | < 500 | 500 to 1500 |  |  |  |
| Cc1sc2c(c1C)C(c1ccc(C(=O)N3CCC[C@@H](Cc4ccc(C(=O)N[C@H]5CC[C@H](Oc6ccc(C#N)c(Cl)c6)CC5)nn4)C3)cc1)=N[C@@H](Cc1ncco1)c1nnc(C)n1-2 [I-274] |  |  | > 3000 | > 3000 |  |  |  |
| Cc1sc2c(c1C)C(c1ccc(C#CC3CC4(C3)CN(c3ccc(C(=O)N[C@H]5CC[C@H](Oc6ccc(C#N)c(Cl)c6)CC5)nn3)C4)cn1)=N[C@@H](Cc1ncco1)c1nnc(C)n1-2 [I-280] |  |  | < 500 | > 3000 |  |  |  |
| Cc1sc2c(c1C)C(c1ccc(C#CC3CC4(C3)CN(c3ccc(C(=O)N[C@H]5CC[C@H](Oc6ccc(C#N)c(Cl)c6)CC5)nn3)C4)nc1)=N[C@@H](Cc1ncco1)c1nnc(C)n1-2 [I-282] |  |  | > 3000 | > 3000 |  |  |  |
| Cc1sc2c(c1C)C(c1ccc(CC3CCC4CN(c5ccc(C(=O)N[C@H]6CC[C@H](Oc7ccc(C#N)c(Cl)c7)CC6)nn5)CCN4C3)cc1)=N[C@@H](Cc1ncco1)c1nnc(C)n1-2 (stereo partly drawn) [I-283] |  |  | < 500 | < 500 |  |  |  |
| Cc1sc2c(c1C)C(c1ccc(OC[C@H]3C[C@]4(CCCN(c5ccc(C(=O)N[C@H]6CC[C@H](Oc7ccc(C#N)c(Cl)c7)CC6)nn5)C4)C3)cc1)=N[C@@H](C)c1nnc(C)n1-2 [I-354] |  |  | < 500 |  |  | 500 to 1500 | > 3000 |
